Entries after “also recorded” stand apart in the source; their conditions may differ. Read-outs that look alike come from different tables or passages of the source.
Tests used:
rat adjuvant arthritis = experiment: Effect on the Development of Adjuvant Arthritis; assay type: in vivo, Fischer male rats; conditions: oral; for inhibition in vivo at 100 mg/kg / inhibition in vivo at 50 mg/kg: Rattus norvegicus, 504 h, 21 days after adjuvant, mean ± standard error
Procedure: Fischer male rats (8 weeks old; body weight 120-180 g) were grouped so that the average of body weights among the groups were nearly the same. Then, 0.1 ml of complete adjuvant obtained by suspending Mycobacterium butyricum (Difco Laboratories) in paraffin oil in a concentration of 6 mg/ml was injected into the footpad of the right hind paw to induce adjuvant arthritis.
Each of the test compounds was dissolved or suspended in a 1% gum arabic solution, and administered orally once a day on six days a week over a period of three weeks starting from the day of the adjuvant injection. The group administered with a 1% gum arabic solution instead of the test compound was served for a control. The volumes of both hind paws were measured plethysmographically by displacement of water at various times after injection of the adjuvant, and the percent paw edema inhibition was calculated from the following equation. [formula] Eexp : the percent paw edema in rats treated with the test compound Econt : the mean of percent paw edema in rats of the control group
The percent paw edema was calculated from the following equation. [formula] Vpost : the paw volume after treatment with the adjuvant Vpre : the paw volume before treatment with the adjuvant

in vivo = conditions: mouse, oral, mice died within a week, probit method
Procedure: ddY male mice (body weight about 23 g) were fasted overnight, and the test compound dissolved or suspended in a 1% gum arabic solution administered orally. From the number of mice died within a week, the LD50 value was calculated by the probit method.

[1] = tested on: Delayed-Type Hypersensitivity (DTH), normal immune reaction; experiment: Effect on Delayed-Type Hypersensitivity (DTH): normal immune reaction; assay type: in vivo, BALB/c male mice; conditions: for Footpad swelling inhibition / Footpad swelling: oral, normal immune reaction; for Footpad swelling: mean ± standard error
Procedure: BALB/c male mice (8 weeks old) were sensitized by injection into the tail vein with 0.2 ml of 5×10^6 /ml sheep red blood cells (SRBC). Three days after the sensitization, 0.05 ml of 8×10^9 /ml SRBC was injected into the footpad of the right hind paw for elicitation of DTH. Footpad thickness was measured immediately before and 24 hours after the elicitation with a dial thickness gauge. The level of DTH was expressed as footpad swelling (mm) at 24 hour. The inhibition (%) of footpad swelling was calculated from the following equation.
The test compound was dissolved or suspended in a 1% gum arabic solution, and administered orally once a day over a period of 7 days starting from four days before the sensitization. To a control group, a 1% gum arabic solution was administered instead of the test compound. [formula] Texp : the mean of the footpad swelling in mice treated with the test compound
Tcont : the mean of the footpad swelling in mice of the control group

[2] = tested on: Delayed-Type Hypersensitivity (DTH), enhanced immune reaction; experiment: Effect on Delayed-Type Hypersensitivity (DTH): enhanced immune reaction; assay type: in vivo, BALB/c male mice; conditions: for Footpad swelling inhibition / Footpad swelling: oral, cyclophosphamide 75 mg/kg; for Footpad swelling: mean ± standard error
Procedure: Three days after the sensitization, 0.05 ml of 8×10^9 /ml SRBC was injected into the footpad of the right hind paw for elicitation of DTH. Twenty four hours later, footpad swelling (mm) was measured in the same way as in (A) above, and the inhibition (%) of footpad swelling was calculated from the following equation.
The test compound was dissolved or suspended in a 1% gum arabic solution, and administered orally once a day over a period of 7 days starting from four days before the sensitization (immediately after administration of cyclophosphamide). To a control group, a 1% gum arabic solution was administered instead of the test compound. The group, administered with physiological saline instead of cyclophosphamide and a 1% gum arabic solution instead of test compound respectively, was served for a normal group. [formula] Tcont : the mean of the footpad swelling in mice of the control group Texp : the mean of the footpad swelling in mice treated with the test compound
Tnor : the mean of the footpad swelling in mice of the normal group.

[3] = tested on: rat carrageenin-induced paw edema; experiment: rat carrageenin-induced paw edema (acute inflammation); assay type: in vivo; conditions: 100 mg/kg
[4] = tested on: rat mustard-induced paw edema; experiment: rat mustard-induced paw edema (subacute inflammation); assay type: in vivo; conditions: 100 mg/kg
[5] = 100 mg/kg, read-out: Paw edema inhibition, Non-treated paw
[6] = 100 mg/kg, read-out: Paw edema inhibition, Treated paw
[7] = 3 mg/kg, ** P < 0.01 vs control
[8] = 10 mg/kg, ** P < 0.01 vs control
[9] = 30 mg/kg, * P < 0.05, ** P < 0.01 vs control
[10] = 100 mg/kg, * P < 0.05 vs control

Molecule CC(=O)Oc1cccc2sc(-c3ccc(C(=O)O)cc3)nc12 [Example 7, 4-(4-Acetoxybenzothiazol-2-yl)benzoic acid] has an inhibition in vivo at 100 mg/kg (rat adjuvant arthritis; [5]) of 38.5 ± 6%, an inhibition in vivo at 100 mg/kg (rat adjuvant arthritis; [6]) of 29.9 ± 2.9% and an LD50 at 168 h (in vivo) of 2020 mg/kg.
With COC(=O)c1ccc(-c2nc3c(OC(C)=O)cccc3s2)cc1 [Example 8, Methyl 4-(4-acetoxybenzothiazol-2-yl)benzoate] the inhibition in vivo at 100 mg/kg (rat adjuvant arthritis; [5]) was 28.6 ± 8.8%, the inhibition in vivo at 100 mg/kg (rat adjuvant arthritis; [6]) was 29.3 ± 3.6% and the LD50 at 168 h (in vivo) was greater than 3000 mg/kg.
For CC(=O)Oc1cccc2sc(-c3ccc(C)cc3)nc12 [Example 5, 4-Acetoxy-2-(4-methylphenyl)benzothiazole], the Footpad swelling inhibition ([1]; 1 mg/kg) was 0.0%, the Footpad swelling ([1]; 1 mg/kg) was 59 ± 5 × 10^-2 mm and the Footpad swelling inhibition ([1]; 3 mg/kg) was -6.8%. For the same molecule, the Footpad swelling ([1]; 3 mg/kg) was 63 ± 6 × 10^-2 mm, the Footpad swelling inhibition ([1]; 10 mg/kg) was 3.4% and the Footpad swelling ([1]; 10 mg/kg) was 57 ± 6 × 10^-2 mm. The Footpad swelling inhibition ([1]; 30 mg/kg) was -8.5%, the Footpad swelling ([1]; 30 mg/kg) was 64 ± 6 × 10^-2 mm and the Footpad swelling inhibition ([1]; 100 mg/kg) was 10.2%. The Footpad swelling ([1]; 100 mg/kg) was 53 ± 4 × 10^-2 mm, the inhibition in vivo at 100 mg/kg (rat adjuvant arthritis; [5]) was 32 ± 7.7% and the inhibition in vivo at 100 mg/kg (rat adjuvant arthritis; [6]) was 31.8 ± 3.9%. For the same molecule, the Footpad swelling inhibition ([2]; 1 mg/kg) was 57.1%, the Footpad swelling ([2]; 1 mg/kg, * P < 0.05 vs control) was 37 ± 5 × 10^-2 mm and the Footpad swelling inhibition ([2]; 3 mg/kg) was 66.7%. For the same molecule, the Footpad swelling [2, 7] was 35 ± 1 × 10^-2 mm, the Footpad swelling inhibition ([2]; 10 mg/kg) was 85.7% and the Footpad swelling [2, 8] was 31 ± 3 × 10^-2 mm. For the same molecule, the Footpad swelling inhibition ([2]; 30 mg/kg) was 76.2%, the Footpad swelling [2, 9] was 33 ± 2 × 10^-2 mm and the Footpad swelling inhibition ([2]; 100 mg/kg) was 57.1%. For the same molecule, the Footpad swelling [2, 10] was 37 ± 4 × 10^-2 mm and the LD50 at 168 h (in vivo) was greater than 3000 mg/kg.
With COc1ccc(-c2nc3c(OC(C)=O)cccc3s2)cc1 [Example 6, 4-Acetoxy-2-(4-methoxyphenyl)benzothiazole] the inhibition in vivo at 100 mg/kg (rat adjuvant arthritis; [5]) was 27.4 ± 10.8%, the inhibition in vivo at 100 mg/kg (rat adjuvant arthritis; [6]) was 24.7 ± 3.7% and the LD50 at 168 h (in vivo) was greater than 3000 mg/kg.
For CC(=O)Oc1cccc2nc(-c3ccc(C)cc3)sc12 [C, 7-acetoxy-2-(4-methylphenyl)benzothiazole], the inhibition in vivo at 100 mg/kg (rat adjuvant arthritis; [5]) was 8.9 ± 10.4% and the inhibition in vivo at 100 mg/kg (rat adjuvant arthritis; [6]) was 16.6 ± 4.1%.
Work on CC(=O)Oc1ccc2nc(-c3ccc(C)cc3)sc2c1 [B, 6-acetoxy-2-(4-methylphenyl)benzothiazole] yielded an inhibition in vivo at 100 mg/kg (rat adjuvant arthritis; [5]) of 4.4 ± 14.2% and an inhibition in vivo at 100 mg/kg (rat adjuvant arthritis; [6]) of -7.6 ± 8.8%.
CC(=O)Oc1ccc2sc(-c3ccc(C)cc3)nc2c1 [A, 5-acetoxy-2-(4-methylphenyl)benzothiazole] showed an inhibition in vivo at 100 mg/kg (rat adjuvant arthritis; [5]) of 4.5 ± 11.7% and an inhibition in vivo at 100 mg/kg (rat adjuvant arthritis; [6]) of 12.9 ± 4.4%.
For O=C([O-])c1ccccc1Nc1cc(Cl)ccc1C(=O)[O-].[Na+].[Na+] [Lobenzarit disodium, N-(2-carboxyphenyl)-4-chloroanthranilic acid disodium salt], the Footpad swelling inhibition ([1]; 1 mg/kg) was 4.3%, the Footpad swelling ([1]; 1 mg/kg) was 67 ± 2 × 10^-2 mm and the Footpad swelling inhibition ([1]; 3 mg/kg) was 8.6%. The Footpad swelling ([1]; 3 mg/kg) was 64 ± 5 × 10^-2 mm, the Footpad swelling inhibition ([1]; 10 mg/kg) was -8.6% and the Footpad swelling ([1]; 10 mg/kg) was 76 ± 6 × 10^-2 mm. The Footpad swelling inhibition ([1]; 30 mg/kg) was 7.1%, the Footpad swelling ([1]; 30 mg/kg) was 65 ± 4 × 10^-2 mm and the Footpad swelling inhibition ([1]; 100 mg/kg) was 7.1%. The Footpad swelling ([1]; 100 mg/kg) was 65 ± 5 × 10^-2 mm, the “effect on DTH in a normal immune reaction (in words)” value ([1]; any doses, disodium salt) was “did not inhibit footpad swelling at any doses; also recorded: no effect on a normal immune reaction” and the “death during the test” value (rat adjuvant arthritis; 100 mg/kg, adjuvant arthritis rats, footnote of Table 1) was “Four animals out of 16”. It also gave an inhibition in vivo at 50 mg/kg (rat adjuvant arthritis; read-out: Paw edema inhibition, Non-treated paw) of -9 ± 12%, an inhibition in vivo at 50 mg/kg (rat adjuvant arthritis; read-out: Paw edema inhibition, Treated paw) of 6.3 ± 5.3% and an inhibition in vivo at 100 mg/kg (rat adjuvant arthritis; [5]) of -1.7 ± 11.4%. The inhibition in vivo at 100 mg/kg (rat adjuvant arthritis; [6]) was 15.1 ± 6.6%, the “effect on rat carrageenin-induced paw edema” value [3] was “no effect” and the Footpad swelling inhibition ([2]; 1 mg/kg) was 20.0%. The Footpad swelling ([2]; 1 mg/kg, * P < 0.05 vs control) was 47 ± 3 × 10^-2 mm, the Footpad swelling inhibition ([2]; 3 mg/kg) was 40.0% and the Footpad swelling [2, 7] was 43 ± 3 × 10^-2 mm. For the same molecule, the Footpad swelling inhibition ([2]; 10 mg/kg) was -10.0%, the Footpad swelling [2, 8] was 53 ± 3 × 10^-2 mm and the Footpad swelling inhibition ([2]; 30 mg/kg) was 50.0%. The Footpad swelling [2, 9] was 41 ± 3 × 10^-2 mm, the Footpad swelling inhibition ([2]; 100 mg/kg) was 50.0% and the Footpad swelling [2, 10] was 41 ± 3 × 10^-2 mm. The “effect on DTH in an enhanced immune reaction (in words)” value ([2]; any doses) was “suppresses an abnormally enhanced immune reaction” and the “effect on rat mustard-induced paw edema” value [4] was “no effect”.

Reference: patent US4910211A, “Novel benzothiazole and antirheumatic agent comprising it as an active ingredient” (Kanebo Ltd., priority 1987, dated 1990)
